Test results: US9464064B2, “HCV helicase inhibitors and methods of use thereof” (University of Kansas, priority 2011, dated 2016)

Columns and labels:
[1] = tested on: NS5A in Huh7.5/HCV Con1sg Rluc replicon cells; assay: Western blot of NS5A in replicon cells; format: cell-based, hepatitis C virus; conditions: 4-day exposure
Method: To analyze effects on HCV proteins expression by western blot, Huh7.5/HCV Con1sg Rluc replicon stable cells were washed with PBS, harvested in PBS, and lysed with RIPA buffer for 20 minutes on ice and cleared lysates were obtained by centrifugation at 14,000 rpm for 20 minutes at 4° C. Protein concentrations were determined with the BIO-RAD protein assay kit (Bio-Rad) and 15 μg total proteins was resolved on 10% sodium dodecyl sulfate-polyacrylamide gel electrophoresis (SDS-PAGE) and transferred to nitrocellulose membrane. The blots were probed with primary anti-NS5A mAb (Meridian life Sciences, Saco, Me.) and a peroxidase-conjugated secondary antibody (Cell Signaling, Danvers, Mass.) and were developed with enhanced chemiluminescence (ECL) detection reagents (Pierce, Rockford, Ill.). The blots were stripped and probed again with primary anti-tubulin antibody (Sigma) to confirm equal loading of protein and a peroxidase-conjugated anti-mouse secondary antibody (Cell Signaling) and developed with ECL reagents (Pierce).
To further characterize the anti-viral activity of this class of compounds, HCV Renilla luciferase (Rluc) subgenomic replicon cells were exposed to different concentrations of compound 24 and the effect of compound 24 on HCV replication was assessed on HCV Rluc reporter gene activity. […]

[2] = tested on: NS3 protease in Huh7.5/HCV Con1sg Rluc cells; assay: IPS-1 (MAVS)-based reporter cell-based protease assay; design: species or system hepatitis C virus; conditions: 10 μM, 72 hours
Method: An IPS-1 (also known as MAVS)-based reporter assay was used for cell-based protease assay. […] RFP-NLS-IPS pseudoparticles were transduced into Huh7.5/HCV Con1sg Rluc cells in a 24-well plate containing cover slips and compounds were added to the cells after 6 hours at a 10 μM concentration and after 72 hours from the first addition, cells were fixed in 1% PFA, washed twice with PBS, mounted on glass slides and microscopic analyses were done.
Microscopy was performed with a Nikon Ti-E inverted fluorescence microscope using a 20× and 40×/NA 1.4 objective. Compounds were imaged using DAPI filter 340/40 band-pass excitation and a 435/50 band pass emission filter. For ALEXA 546 and RFP-NLS-IPS, a 528/25 nm band pass excitation filter and 590/60 nm band-pass emission filter were used. Image acquisition was performed with a Q imaging ROLERA camera and the NIS elements basic research imaging software (Nikon). […]
The assay selected (Jones, et al. (2010) supra) uses a fusion protein made from a NS3 protease cellular target called IPS-1 (also known as MAVS) fused to a red fluorescent protein (RFP) and a nuclear localization signal (NLS). Lentivirus expressing the RFP-NLS-IPS-1 was used to transduce the above Rluc subgenomic HCV replicon cell line, and the effect of compounds on the location of RFP-NLS was examined using fluorescence microscopy.

[3] = Hepatic microsome stability, human; format: in vitro ADME; conditions: percent remaining at 1 hour
Method: Metabolic stability was assessed in the presence of human liver microsomes (XenoTech) and mouse liver mirosomes (XenoTech). All liquid was dispensed and transfer steps were performed with the FREEDOM EVO automated liquid handler (Tecan US). NADPH, a required cofactor for CYP450 metabolism, was provided by the NADPH Regenerating System, Solutions A (BD Biosciences) and B (BD Biosciences). Compound stock solutions were initially prepared in 100% DMSO and subsequently diluted in acetonitrile for the assay. The pH of the reactions was kept at ˜7.4 with potassium phosphate buffer (BD Biosciences). The reactions were started after adding NADPH to the reaction plate containing microsomes and compounds and time 0 minutes aliquots were promptly collected and mixed with ice cold acetonitrile (spiked with internal standards) to quench the reactions. The remainder of the reaction volume was incubated at 37° C. with shaking. […] The amount of compound in the supernatant was determined by LC/MS/MS (Applied Biosystems, Sciex API4000 Q-TRAP) and the percent of parent compound remaining after 60 minutes was calculated by the following formula: % parent compound remaining=[(concentration at 60 minutes/concentration at 0 minutes)×100]. […] Results reported are the mean of each reaction triplicate, normalized to the internal standard, and expressed as a percent compound remaining after the incubation time. […]

[4] = Plasma protein binding (RED), human; format: in vitro ADME
Method: (§1) TEFLON Base Plate wells were rinsed with 20% ethanol for 10 minutes. Ethanol was then removed and wells were rinsed with ultrapure water and allowed to dry. RED (rapid equilibrium dialysis) inserts from Thermo Scientific (Pierce) were placed (open end up) into the wells of the base plate. All liquid was dispensed and transfer steps were performed with the FREEDOM EVO automated liquid handler (Tecan US). The sample chambers (red ring) contained 300 μl of a mixture of plasma and compound, and the buffer chambers received 500 μl of dialysis buffer (1×PBS, pH7.4). Duplicate inserts were made for each concentration tested. The base plate was covered with sealing tape and incubated at 37° C. on an orbital shaker at 350 rpm for 4 hours. After the incubation time, equal volumes from both chambers were removed and transferred to a 96 well plate containing either plasma or buffer. […] The amount of compound in the supernatant was determined by LC/MS/MS (Applied Biosystems, Sciex API4000 Q-Trap). The percent of free and bound compounds were calculated with the following formula: % of bound parent compound=[(amount of compound in donor-receiver/amount of compound in donor)×100]. Results reported are the mean of each reaction duplicate, normalized to the internal standard, and expressed as a percent compound bound after the incubation time. […]

[5] = Plasma protein binding (RED), mouse; format: in vitro ADME
Method: as §1

## Cc1ccc2nc(-c3ccc4nc(-c5ccc(NC(=O)c6cc(C(F)(F)F)cc(C(F)(F)F)c6)cc5)sc4c3)sc2c1S(=O)(=O)O [Compound 24, 2′-(4-(3,5-bis(trifluoromethyl)benzamido)phenyl)-6-methyl-[2,6′-bibenzo[d]thiazole]-7-sulfonic acid]
[1]
  cellular NS5A levels: reduced NS5A levels in a time-dependent manner
[2]
  nuclear translocation of RFP-NLS (cellular NS3 protease activity): did not inhibit nuclear translocation

## Cc1ccc2nc(-c3ccc4nc(-c5ccc(NC(=O)c6cccc(Cl)c6)cc5)sc4c3)sc2c1S(=O)(=O)O [Compound 17, 2′-(4-(3-chlorobenzamido)phenyl)-6-methyl-[2,6′-bibenzo[d]thiazole]-7-sulfonic acid]
[3]
  Hepatic Microsome Stability Human: 83.57%
[4]; pH 7.4, 1 μM, read-out: Plasma Protein Binding (% Bound) Human (converted)
  fraction unbound at 4 h, 1 μM: 0.02
[4]; pH 7.4, 10 μM, read-out: Plasma Protein Binding (% Bound) Human
  fraction unbound at 4 h, 10 μM: 0.01
[5]; pH 7.4, 1 μM, read-out: Plasma Protein Binding (% Bound) Mouse (converted)
  fraction unbound at 4 h, 1 μM: 0.02
[5]; pH 7.4, 10 μM, read-out: Plasma Protein Binding (% Bound) Mouse
  fraction unbound at 4 h, 10 μM: 0.01
